How the values were obtained:
[1] = Stroke statin response (SSR) in the CARE pravastatin trial: pravastatin-treated versus placebo-treated, by SNP genotype; type: in vivo, human; conditions: for EVENTS: stroke events in pravastatin arm
[2] = Stroke statin response (SSR) in the PROSPER pravastatin trial: pravastatin-treated versus placebo-treated, by SNP genotype; type: in vivo, human

CC[C@H](C)C(=O)O[C@H]1C[C@H](O)C=C2C=C[C@H](C)[C@H](CC[C@@H](O)C[C@@H](O)CC(=O)O)[C@H]21 [pravastatin]
EVENTS ([1]; CARE, rs3213646 EXOD1, GEN, genotype CC, TOTAL 417): 27 | EVENTS ([1]; CARE, rs3213646 EXOD1, GEN, genotype CT, TOTAL 691): 24 | EVENTS ([1]; CARE, rs3213646 EXOD1, GEN, genotype TT, TOTAL 245): 13 | EVENTS ([1]; CARE, rs3213646 EXOD1, REC, genotype CT + TT, TOTAL 936): 37 | EVENTS ([1]; CARE, rs3900940 MYH15, DOM, genotype CT + CC, TOTAL 721): 36 | EVENTS ([1]; CARE, rs3900940 MYH15, GEN, genotype CC, TOTAL 160): 13 | EVENTS ([1]; CARE, rs3900940 MYH15, GEN, genotype CT, TOTAL 561): 23 | EVENTS ([1]; CARE, rs3900940 MYH15, GEN, genotype TT, TOTAL 620): 30 | EVENTS ([1]; CARE, rs3900940 MYH15, REC, genotype CT + TT, TOTAL 1181): 53 | HR ([1]; pravastatin vs placebo, ENDPT4F1, hCV1463226 rs10890 FXN, GEN, genotype CC): 0.48 | HR ([1]; pravastatin vs placebo, ENDPT4F1, hCV1463226 rs10890 FXN, GEN, genotype TT): 0.41 | HR ([1]; pravastatin vs placebo, ENDPT4F1, hCV1846459 rs4803759, GEN, genotype CC): 0.66 | HR ([1]; pravastatin vs placebo, ENDPT4F1, hCV1846459 rs4803759, GEN, genotype TC): 0.62 | HR ([1]; pravastatin vs placebo, ENDPT4F1, hCV1846459 rs4803759, REC, genotype TC + CC): 0.64 | HR ([1]; pravastatin vs placebo, ENDPT4F1, hCV2442143 rs12544854 ASAH1, DOM, genotype TC + TT, first listing (TOTAL 1070)): 0.57 | HR ([1]; pravastatin vs placebo, ENDPT4F1, hCV2442143 rs12544854 ASAH1, DOM, genotype TC + TT, second listing (TOTAL 1059)): 0.56 | HR ([1]; pravastatin vs placebo, ENDPT4F1, hCV2442143 rs12544854 ASAH1, GEN, genotype TC, first listing (TOTAL 713)): 0.55 | HR ([1]; pravastatin vs placebo, ENDPT4F1, hCV2442143 rs12544854 ASAH1, GEN, genotype TC, second listing (TOTAL 704)): 0.57 | HR ([1]; pravastatin vs placebo, ENDPT4F1, hCV2741051 rs2230806 ABCA1, DOM, genotype TC + TT, first listing (TOTAL 709)): 0.47 | HR ([1]; pravastatin vs placebo, ENDPT4F1, hCV2741051 rs2230806 ABCA1, DOM, genotype TC + TT, second listing (TOTAL 711)): 0.47 | HR ([1]; pravastatin vs placebo, ENDPT4F1, hCV2741051 rs2230806 ABCA1, GEN, genotype TC, first listing (TOTAL 597)): 0.47 | HR ([1]; pravastatin vs placebo, ENDPT4F1, hCV2741051 rs2230806 ABCA1, GEN, genotype TC, second listing (TOTAL 603)): 0.5 | HR ([1]; pravastatin vs placebo, ENDPT4F1, hCV2862873 rs780094 GCKR, DOM, genotype TC + TT): 0.6 | HR ([1]; pravastatin vs placebo, ENDPT4F1, hCV2959482 rs3890182 ABCA1, DOM, genotype AG + AA): 0.34 | HR ([1]; pravastatin vs placebo, ENDPT4F1, hCV2959482 rs3890182 ABCA1, GEN, genotype AG): 0.34 | HR ([1]; pravastatin vs placebo, ENDPT4F1, hCV3216551 rs562338, GEN, genotype GG): 0.59 | HR ([1]; pravastatin vs placebo, ENDPT4F1, hCV8757333 rs1800588 LIPC, DOM, genotype TC + TT): 0.49 | HR ([1]; pravastatin vs placebo, ENDPT4F1, hCV8942032 rs1264352 DDR1, DOM, genotype CG + CC, risk allele C): 0.41 | HR ([1]; pravastatin vs placebo, ENDPT4F1, hCV9296529 rs4358307, GEN, genotype GA): 0.5 | HR ([1]; pravastatin vs placebo, ENDPT4F1, hCV9324316 rs9305020, GEN, genotype TT): 0.7 | HR ([1]; pravastatin vs placebo, ENDPT4F1, hCV9324316 rs9305020, REC, genotype CT + TT): 0.76 | HR ([1]; pravastatin vs placebo, ENDPT4F1, hCV9473891 rs1555173, REC, genotype CT + TT): 0.75 | HR ([1]; pravastatin vs placebo, ENDPT4F1, hCV16164743 rs2928932, GEN, genotype AA): 0.6 | HR ([1]; pravastatin vs placebo, ENDPT4F1, hCV16164743 rs2928932, GEN, genotype CC): 0.31 | HR ([1]; pravastatin vs placebo, ENDPT4F1, hCV22275299 rs28927680 BUD13, GEN, genotype GC): 0.2 | HR ([1]; pravastatin vs placebo, ENDPT4F1, hCV26682080 rs4420638, DOM, genotype GA + GG): 0.45 | HR ([1]; pravastatin vs placebo, ENDPT4F1, hCV26682080 rs4420638, GEN, genotype GA): 0.5 | HR ([1]; pravastatin vs placebo, ENDPT4F1, hCV26682080 rs4420638, GEN, genotype GG): 0.25 | HR ([1]; pravastatin vs placebo, ENDPT4F1, hCV29480044 rs10516433 TSPAN5, GEN, genotype TC): 0.46 | HR ([1]; pravastatin vs placebo, ENDPT4F1, hCV29480044 rs10516433 TSPAN5, REC, genotype TC + CC): 0.67 | HR ([1]; pravastatin vs placebo, ENDPT4F1, hCV29566897 rs10507755, REC, genotype CT + TT): 0.76 | HR ([1]; pravastatin vs placebo, ENDPT4F1, hCV30454150 rs10516434 TSPAN5, GEN, genotype TC): 0.46 | HR ([1]; pravastatin vs placebo, ENDPT4F1, hCV30454150 rs10516434 TSPAN5, REC, genotype TC + CC): 0.67 | HR ([1]; pravastatin vs placebo, ENDPT4F1, hDV77718013, REC, genotype TC + CC): 0.74 | HR ([1]; rs1048621 (hCV1619596, SDCBP2), ALL, genotype AA, MODE GEN, ENDPT4F1, pravastatin vs placebo, CARE): 0.16 | HR ([1]; rs1048621 (hCV1619596, SDCBP2), ALL, genotype AG + AA, MODE DOM, ENDPT4F1, pravastatin vs placebo, CARE): 0.69 | HR ([1]; rs1048621 (hCV1619596, SDCBP2), ALL, genotype AG + GG, MODE REC, ENDPT4F1, pravastatin vs placebo, CARE): 0.82 | HR ([1]; rs1048621 (hCV1619596, SDCBP2), ALL, genotype AG, MODE GEN, ENDPT4F1, pravastatin vs placebo, CARE): 0.89 | HR ([1]; rs1048621 (hCV1619596, SDCBP2), ALL, genotype GG, MODE GEN, ENDPT4F1, pravastatin vs placebo, CARE): 0.77 | HR ([1]; rs1264352 (hCV8942032, DDR1), genotype CC, MODE GEN, ENDPT4F1, pravastatin vs placebo, CARE): 0.86 | HR ([1]; rs1264352 (hCV8942032, DDR1), genotype CG + CC, MODE DOM, ENDPT4F1, pravastatin vs placebo, CARE): 0.41 | HR ([1]; rs1264352 (hCV8942032, DDR1), genotype CG + GG, MODE REC, ENDPT4F1, pravastatin vs placebo, CARE): 0.73 | HR ([1]; rs1264352 (hCV8942032, DDR1), genotype CG, MODE GEN, ENDPT4F1, pravastatin vs placebo, CARE): 0.39 | HR ([1]; rs1264352 (hCV8942032, DDR1), genotype GG, MODE GEN, ENDPT4F1, pravastatin vs placebo, CARE): 0.84 | HR ([1]; rs2857595 (hCV16134786), ALL, genotype AA, MODE GEN, ENDPT4F1, pravastatin vs placebo, CARE): 0.23 | HR ([1]; rs2857595 (hCV16134786), ALL, genotype AG + AA, MODE DOM, ENDPT4F1, pravastatin vs placebo, CARE): 0.58 | HR ([1]; rs2857595 (hCV16134786), ALL, genotype AG + GG, MODE REC, ENDPT4F1, pravastatin vs placebo, CARE): 0.77 | HR ([1]; rs2857595 (hCV16134786), ALL, genotype AG, MODE GEN, ENDPT4F1, pravastatin vs placebo, CARE): 0.67 | HR ([1]; rs2857595 (hCV16134786), ALL, genotype GG, MODE GEN, ENDPT4F1, pravastatin vs placebo, CARE): 0.8 | HR ([1]; rs11079160 (hCV32160712), ALL, genotype AA, MODE GEN, ENDPT4F1, pravastatin vs placebo, CARE): 0.86 | HR ([1]; rs11079160 (hCV32160712), ALL, genotype TA + AA, MODE REC, ENDPT4F1, pravastatin vs placebo, CARE): 0.78 | HR ([1]; rs11079160 (hCV32160712), ALL, genotype TA + TT, MODE DOM, ENDPT4F1, pravastatin vs placebo, CARE): 0.55 | HR ([1]; rs11079160 (hCV32160712), ALL, genotype TA, MODE GEN, ENDPT4F1, pravastatin vs placebo, CARE): 0.62 | HR ([1]; rs11079160 (hCV32160712), ALL, genotype TT, MODE GEN, ENDPT4F1, pravastatin vs placebo, CARE): 0.24 | HR ([1]; rs12762303 (hCV27830265, ALOX5), genotype AA, MODE GEN, ENDPT4F1, pravastatin vs placebo, CARE, first listing (TOTAL 1005)): 0.84 | HR ([1]; rs12762303 (hCV27830265, ALOX5), genotype AA, MODE GEN, ENDPT4F1, pravastatin vs placebo, CARE, second listing (TOTAL 1002)): 0.85 | HR ([1]; rs12762303 (hCV27830265, ALOX5), genotype GA + AA, MODE REC, ENDPT4F1, pravastatin vs placebo, CARE, first listing (TOTAL 1381)): 0.73 | HR ([1]; rs12762303 (hCV27830265, ALOX5), genotype GA + AA, MODE REC, ENDPT4F1, pravastatin vs placebo, CARE, second listing (TOTAL 1377)): 0.73 | HR ([1]; rs12762303 (hCV27830265, ALOX5), genotype GA + GG, MODE DOM, ENDPT4F1, pravastatin vs placebo, CARE, first listing (TOTAL 399)): 0.46 | HR ([1]; rs12762303 (hCV27830265, ALOX5), genotype GA + GG, MODE DOM, ENDPT4F1, pravastatin vs placebo, CARE, second listing (TOTAL 398)): 0.46 | HR ([1]; rs12762303 (hCV27830265, ALOX5), genotype GA, MODE GEN, ENDPT4F1, pravastatin vs placebo, CARE, first listing (TOTAL 376)): 0.47 | HR ([1]; rs12762303 (hCV27830265, ALOX5), genotype GA, MODE GEN, ENDPT4F1, pravastatin vs placebo, CARE, second listing (TOTAL 375)): 0.47 | HR ([1]; rs12762303 (hCV27830265, ALOX5), genotype GG, MODE GEN, ENDPT4F1, pravastatin vs placebo, CARE, first listing (TOTAL 23)): 0 | HR ([1]; rs12762303 (hCV27830265, ALOX5), genotype GG, MODE GEN, ENDPT4F1, pravastatin vs placebo, CARE, second listing (TOTAL 23)): 0 | HR_RESP (hazard ratio, pravastatin-treated versus placebo-treated) ([2]; hCV2091644 rs1010 VAMP8, GENO_RESP CC + CT, MODE DOM, STRATA no hist): 0.786 | HR_RESP (hazard ratio, pravastatin-treated versus placebo-treated) ([2]; hCV2169762 rs1804689 HPS1, GENO_RESP GG + GT, MODE REC, STRATA hist): 1.028 | HR_RESP (hazard ratio, pravastatin-treated versus placebo-treated) ([2]; hCV2169762 rs1804689 HPS1, GENO_RESP TT + GT, MODE DOM, STRATA no hist): 1.266 | EVENTS_RESP ([2]; hCV2169762 rs1804689 HPS1, GENO_RESP TT, MODE GEN, STRATA hist): 5 | HR_RESP (hazard ratio, pravastatin-treated versus placebo-treated) ([2]; hCV29539757 rs10110659 KCNQ3, GENO_RESP CC + AC, MODE REC, STRATA hist): 1.009

From patent US11401555B2, “Genetic polymorphisms associated with stroke, methods of detection and uses thereof” (CELERA CORPORATION, priority 2008, dated 2022)
